Assay results as given in patent US20240101570A1 (AMGEN INC., priority 2020, published 2024).

Columns and labels:
[1] = test system: HCT116 WT cells; test: HCT116 WT cell proliferation / viability (CellTiter-Glo, 6 days); assay type: cell-based; conditions: Homo sapiens, HCT-116, 144 h, HCT116 WT cells, 6 days, CellTiter-Glo; read-out: HCT-116 WT IC50
How it was run: (§1)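 IC50 values derive from sigmoidal dose-response fits, some with Hill slope fixed at −1 and top constrained to 100%, others from 4-parameter logistic models. They reflect CellTiter-Glo viability after 6 days of compound exposure at up to 10 or 50 μM.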

[2] = test system: HCT116 MTAP null cells; test: HCT116 MTAP null cell proliferation / viability (CellTiter-Glo, 6 days); assay type: cell-based; conditions: HCT116-MTAP null, 144 h, HCT116 MTAP null cells, 6 days, CellTiter-Glo; read-out: HCT-116 MTAP null IC50
How it was run: as §1

| Structure (SMILES) | IC50 [1] [µM] | IC50 [2] [µM] |
| --- | --- | --- |
| C[C@H]1OCc2c1c(N)nc1cnc(C(=O)N(C)Cc3ccc(C4CC4)cn3)cc21 [Example 415, (3R)-4-amino-N-((5-cyclopropyl-2-pyridinyl)methyl)-N,3-dimethyl-1,3-dihydrofuro[3,4-c][1,7]naphthyridine-8-carboxamide] | 25.1 | 0.449 |
| C[C@H]1OCc2c1c(N)nc1cnc(C(=O)N(Cc3ccc(C4CC4)cn3)C3CC3)cc21 [Example 416, (3R)-4-amino-N-cyclopropyl-N-((5-cyclopropyl-2-pyridinyl)methyl)-3-methyl-1,3-dihydrofuro[3,4-c][1,7]naphthyridine-8-carboxamide] | 8.23 | 0.062 |
| CCN(Cc1ccc(C(F)(F)F)cn1)C(=O)c1cc2c3c(c(N)nc2cc1Cl)COC3 [Example 420, 4-amino-7-chloro-N-ethyl-N-((5-(trifluoromethyl)-2-pyridinyl)methyl)-1,3-dihydrofuro[3,4-c]quinoline-8-carboxamide] | 8.36 | 0.248 |
| CCN(Cc1ccc(Cl)cn1)C(=O)c1ccc2nc(N)c3c(c2c1)CO[C@@H]3C [Example 421, (3R)-4-amino-N-((5-chloro-2-pyridinyl)methyl)-N-ethyl-3-methyl-1,3-dihydrofuro[3,4-c]quinoline-8-carboxamide] | 10 | 0.116 |
| CCN(Cc1ccc(C(F)(F)F)cn1)C(=O)c1ccc2nc(N)c3c(cnn3C)c2c1 [Example 422, 4-amino-N-ethyl-3-methyl-N-((5-(trifluoromethyl)-2-pyridinyl)methyl)-3H-pyrazolo[3,4-c]quinoline-8-carboxamide] | 10.7 | 6.74 |
| CC(C)N(Cc1ccc(Cl)cn1)C(=O)c1ccc2nc(N)c3c(c2c1)CO[C@@H]3C [Example 423, (3R)-4-amino-N-((5-chloro-2-pyridinyl)methyl)-3-methyl-N-(2-propanyl)-1,3-dihydrofuro[3,4-c]quinoline-8-carboxamide] | 3.98 | 0.064 |
| C[C@H]1OCc2c1c(N)nc1cnc(C(=O)N(Cc3ccc(OC(F)F)nn3)CC3CC3)cc21 [Example 424, (3R)-4-amino-N-(cyclopropylmethyl)-N-((6-(difluoromethoxy)-3-pyridazinyl)methyl)-3-methyl-1,3-dihydrofuro[3,4-c][1,7]naphthyridine-8-carboxamide] | 1.34 | 0.032 |
| Nc1nc2ccc(C(=O)N(Cc3ccc(OC(F)F)nn3)CC3CC3)cc2c2c1COC2 [Example 426, 4-amino-N-(cyclopropylmethyl)-N-((6-(difluoromethoxy)-3-pyridazinyl)methyl)-1,3-dihydrofuro[3,4-c]quinoline-8-carboxamide] | 4.22 | 0.096 |

Other lines, results leading:

| IC50 [1] [µM] | IC50 [2] [µM] | Structure (SMILES) |
| --- | --- | --- |
| 17.6 | 5.61 | C[C@@H]1OCc2c1c(N)nc1cnc(C(=O)N(Cc3ccc(C4CC4)cn3)C3CC3)cc21 [Example 417, (3S)-4-amino-N-cyclopropyl-N-((5-cyclopropyl-2-pyridinyl)methyl)-3-methyl-1,3-dihydrofuro[3,4-c][1,7]naphthyridine-8-carboxamide] |
| 6.34 | 0.171 | Nc1nc2cnc(C(=O)N(Cc3ccc(OC(F)F)nn3)CC3CC3)cc2c2c1COC2 [Example 418, 4-amino-N-(cyclopropylmethyl)-N-((6-(difluoromethoxy)-3-pyridazinyl)methyl)-1,3-dihydrofuro[3,4-c][1,7]naphthyridine-8-carboxamide] |
| 3.79 | 0.152 | CCN(Cc1ccc(C(F)(F)F)cn1)C(=O)c1cc2c3c(c(N)nc2cc1F)COC3 [Example 419, 4-amino-N-ethyl-7-fluoro-N-((5-(trifluoromethyl)-2-pyridinyl)methyl)-1,3-dihydrofuro[3,4-c]quinoline-8-carboxamide] |
| > 50 | 2.71 | C[C@@H]1OCc2c1c(N)nc1cnc(C(=O)N(Cc3ccc(OC(F)F)nn3)CC3CC3)cc21 [Example 425, (3S)-4-amino-N-(cyclopropylmethyl)-N-((6-(difluoromethoxy)-3-pyridazinyl)methyl)-3-methyl-1,3-dihydrofuro[3,4-c][1,7]naphthyridine-8-carboxamide] |
